In patent US8673940B2, “Compounds for the treatment of diseases associated with amyloid or amyloid-like proteins” (AC Immune SA, priority 2006, dated 2014):
Structures can show the parent of a compound that is named as a salt.

Biological target: T1, amyloid beta (Aβ) 1-42 peptide (Homo sapiens, UniProt P05067)
T1 construct: amyloid beta (Aβ) 1-42 peptide; purchased Bachem
T1 sequence (P05067 672-713 limits assumed): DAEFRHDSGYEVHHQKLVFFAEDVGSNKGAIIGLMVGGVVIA
Assay: Thioflavin T spectrofluorescence assay, inhibition of Aβ1-42 aggregation
Type: biochemical
Details: 330 μM small molecule, 33 μM Aβ1-42 (10:1 molar ratio), 24 hrs at 37° C.; mean ± SD of two independent experiments; read-out: % inhibition
Description: A number of the small molecules were tested for their capacity to inhibit the aggregation of amyloid beta (Aβ) 1-42 peptide using a thioflavin T spectrofluorescence assay.
Aβ1-42 lyophilized powder (Bachem) was reconstituted in hexafluoroisopropanol (HFIP) to 1 mM. The peptide solution was sonicated for 15 min at room temperature, agitated overnight, and aliquots were placed into non-siliconized microcentrifuge tubes. The HFIP was then evaporated under a stream of argon. The resulting peptide film was dried under vacuum for 10 min, tightly sealed and stored at −80° C. until used.
To assay for the small molecule-mediated inhibition of Aβ1-42 aggregation, the small molecules were dissolved before each experiment in anhydrous dimethyl sulfoxide (DMSO, Sigma-Aldrich) to reach a concentration of 7.4 mM. Aβ1-42 peptide film was dissolved in DMSO to reach 400 μM. Assay solution in PBS buffer was prepared in non-siliconized incubation tubes to reach the following concentrations: 330 μM small molecule, 33 μM Aβ1-42, 10 μM thioflavin T (ThT), and 12.8% DMSO. Therefore, the final molar ratio of small molecule to Aβ1-42 was 10:1. A positive control without a small molecule was prepared to measure maximum RFU. A negative control without Aβ1-42 was prepared for each small molecule. 3-Aminopyrazole trimer (Trimer) was tested in all assays to ascertain reproducibility between independent experiments. The solutions were incubated for 24 hrs at 37° C., and the spectrofluorescence (relative fluorescence units; RFU) was read in six replicates in black 384-well assay plates (Perkin-Elmer) on a Perkin-Elmer FluoroCount spectrofluorometer. Inhibition of aggregation is expressed as mean % inhibition or ±1 standard deviation (SD) according to the following equation: […]
Cut-off criterium for the selection of functional molecules was defined at 50% inhibition capacity.
The small molecules were evaluated for their capacity to mediate inhibition of Aβ1-42 aggregation at a 10:1 small molecule to Aβ1-42 molar ratio. The results are expressed as mean±standard deviation of two independent experiments.
With `Fc1ccc(NCc2ccc(NCc3ccccc3)nc2)nc1` [Compound 2q, N-Benzyl-5-((5-fluoropyridin-2-ylamino)methyl)pyridin-2-amine] the inhibition at 330 µM was 45 ± 8.3%.
For `Fc1ccc(-c2cc(CNc3cccc(NCc4ccccc4)n3)n[nH]2)cc1` [Compound 2s, N^2-benzyl-N^6-((5-(4-fluorophenyl)-1H-pyrazol-3-yl)methyl)pyridine-2,6-diamine], the inhibition at 330 µM was 55.1 ± 6.4%.
Work on `Nc1cccc(NCc2ccc(NCc3ccccc3)nc2)n1` [Compound 2y, N^2-((6-(benzylamino)pyridin-3-yl)methyl)pyridine-2,6-diamine] yielded an inhibition at 330 µM of 57 ± 15.9%.
`c1ccc(CNc2cccc(CNc3cc(-c4cccs4)[nH]n3)n2)cc1` [Compound 2ac, N-benzyl-6-((5-(thiophen-2-yl)-1H-pyrazol-3-ylamino)methyl)pyridin-2-amine] gave an inhibition at 330 µM of 78.5 ± 1.3%.

Same assay, conditions: 24 h
`CCCNc1ncc(CNc2ncc(CNc3nc(-c4ccc(C)cc4)cs3)s2)s1` [Compound 2ad, N-Propyl-5-((5-((4-p-tolylthiazol-2-ylamino)methyl)thiazol-2-ylamino)methyl)thiazol-2-amine trihydrochloride] gave an inhibition at 330 µM of 82.1 ± 2.2%.
Molecule `Cc1ccc(-c2cc(CNc3cc(-c4ccc(C)cc4)[nH]n3)n[nH]2)cc1` [Compound 2a, 5-p-Tolyl-N-((5-p-tolyl-1H-pyrazol-3-yl)methyl)-1H-pyrazol-3-amine dihydrochloride] has an inhibition at 330 µM of 65.3 ± 2.6%.
With `CNc1ncc(CNc2nc(-c3ccc(C)cc3)cs2)s1` [Compound 2n, N-Methyl-5-((4-p-tolylthiazol-2-ylamino)methyl)thiazol-2-amine dihydrochloride] the inhibition at 330 µM was 27.8 ± 9.9%.
`CNc1ncc(CNc2ncc(-c3ccc(C)cc3)s2)s1` [Compound 2o, N-Methyl-5-((5-p-tolylthiazol-2-ylamino)methyl)thiazol-2-amine dihydrochloride] gave an inhibition at 330 µM of 39.6 ± 2.8%.
In the case of `Fc1ccc(-c2cc(NCc3cnc(NCc4ccccc4)s3)n[nH]2)cc1` [Compound 2k, N-Benzyl-5-((5-(4-fluorophenyl)-1H-pyrazol-3-ylamino)methyl)thiazol-2-amine dihydrochloride], the inhibition at 330 µM is reported as 81.2 ± 7.3%.
In the case of `c1ccc(CNc2ncc(CNc3nc(Cc4ccccc4)cs3)s2)cc1` [Compound 2ae, 4-Benzyl-N-((2-(benzylamino)thiazol-5-yl)methyl)thiazol-2-amine dihydrochloride], the inhibition at 330 µM is reported as 51.2 ± 1.5%.
`c1ccc(CNc2ncc(CNc3nc(-c4cccs4)cs3)s2)cc1` [Compound 2al, N-Benzyl-5-((4-(thiophen-2-yl)thiazol-2-ylamino)methyl)thiazol-2-amine dihydrochloride] gave an inhibition at 330 µM of 66.1 ± 15.4%.
In the case of `CNc1ncc(CNc2nc(-c3ccc(Cl)cc3)cs2)s1` [Compound 2aa, 4-(4-Chlorophenyl)-N-((2-(methylamino)thiazol-5-yl)methyl)thiazol-2-amine dihydrochloride], the inhibition at 330 µM is reported as 41.5 ± 9.6%.
For `c1ccc(CNc2ncc(CNc3ncc(Cc4ccccc4)s3)s2)cc1` [Compound 2ag, 5-Benzyl-N-((2-(benzylamino)thiazol-5-yl)methyl)thiazol-2-amine dihydrochloride], the inhibition at 330 µM was 34.2 ± 1.6%.
For `Cc1ccc(-c2cnc(NCc3cnc(NCc4ccccc4)s3)s2)cc1` [Compound 2h, N-Benzyl-5-((5-p-tolylthiazol-2-ylamino)methyl)thiazol-2-amine dihydrochloride], the inhibition at 330 µM was 31.9 ± 10.1%.
Work on `CNc1ncc(CNc2nccs2)s1` [Compound 2w, N-Methyl-5-((thiazol-2-ylamino)methyl)thiazole-2-amine dihydrochloride] yielded an inhibition at 330 µM of 13.9 ± 12.9%.
For `CNc1ncc(CNc2ncc(Cc3ccccc3)s2)s1` [Compound 2ah, 5-Benzyl-N-((2-(methylamino)thiazol-5-yl)methyl)thiazol-2-amine dihydrochloride], the inhibition at 330 µM was 35.7 ± 5.6%.
Work on `c1ccc(Nc2ncc(CNc3nccs3)s2)nc1` [Compound 2p, N-(Pyridin-2-yl)-5-((thiazol-2-ylamino)methyl)thiazol-2-amine trihydrochloride] yielded an inhibition at 330 µM of 43.6 ± 2.1%.
Work on `Cc1ccc(-c2csc(NCc3cnc(NCc4ccccc4)s3)n2)cc1` [Compound 2j, N-Benzyl-5-((4-p-tolylthiazol-2-ylamino)methyl)thiazol-2-amine dihydrochloride] yielded an inhibition at 330 µM of 70.7 ± 6.8%.
Molecule `Cc1ccc(-c2cc(CNc3cc(CNc4cc(-c5ccc(C)cc5)[nH]n4)n[nH]3)n[nH]2)cc1` [Compound 2ai, 5-p-Tolyl-N-((5-((5-p-tolyl-1H-pyrazol-3-yl)methylamino)-1H-pyrazol-3-yl)methyl)-1H-pyrazol-3-amine trihydrochloride] has an inhibition at 330 µM of 84.8%.
For `Cc1ccc(-c2csc(NCc3cnc(Nc4ccccn4)s3)n2)cc1` [Compound 2z, N-(Pyridin-2-yl)-5-((4-p-tolylthiazol-2-ylamino)methyl)thiazol-2-amine trihydrochloride], the inhibition at 330 µM was 58.7 ± 3%.
With `CNc1ncc(CNc2nc(Cc3ccccc3)cs2)s1` [Compound 2af, 4-Benzyl-N-((2-(methylamino)thiazol-5-yl)methyl)thiazol-2-amine dihydrochloride] the inhibition at 330 µM was 41.3 ± 9.2%.

System: not given
Assay: not given
Details: not given
Work on `Fc1ccc(-c2cc(NCc3cnc(NCc4ccccc4)s3)n[nH]2)cc1` (as salt: hydrochloride) [Compound 2k, N-Benzyl-5-((5-(4-fluorophenyl)-1H-pyrazol-3-ylamino)methyl)thiazol-2-amine dihydrochloride] yielded a melting point of 78 to 80 °C.
With `Cc1ccc(-c2cnc(NCc3cnc(NCc4ccccc4)s3)s2)cc1` (as salt: hydrochloride) [Compound 2h, N-Benzyl-5-((5-p-tolylthiazol-2-ylamino)methyl)thiazol-2-amine dihydrochloride] the melting point was 105 to 106 °C.
In the case of `CNc1ncc(CNc2nc(Cc3ccccc3)cs2)s1` (as salt: hydrochloride) [Compound 2af, 4-Benzyl-N-((2-(methylamino)thiazol-5-yl)methyl)thiazol-2-amine dihydrochloride], the melting point is reported as 126 to 127 °C.
`c1ccc(CNc2ncc(CNc3nc(-c4cccs4)cs3)s2)cc1` (as salt: hydrochloride) [Compound 2al, N-Benzyl-5-((4-(thiophen-2-yl)thiazol-2-ylamino)methyl)thiazol-2-amine dihydrochloride] showed a melting point of 97 to 99 °C.
`CNc1ncc(CNc2nc(-c3ccc(C)cc3)cs2)s1` (as salt: hydrochloride) [Compound 2n, N-Methyl-5-((4-p-tolylthiazol-2-ylamino)methyl)thiazol-2-amine dihydrochloride] gave a melting point of 114 to 116 °C.
With `c1ccc(CNc2ncc(CNc3ncc(Cc4ccccc4)s3)s2)cc1` (as salt: hydrochloride) [Compound 2ag, 5-Benzyl-N-((2-(benzylamino)thiazol-5-yl)methyl)thiazol-2-amine dihydrochloride] the melting point was 96 to 97 °C.
In the case of `Cc1ccc(-c2csc(NCc3cnc(Nc4ccccn4)s3)n2)cc1` (as salt: hydrochloride) [Compound 2z, N-(Pyridin-2-yl)-5-((4-p-tolylthiazol-2-ylamino)methyl)thiazol-2-amine trihydrochloride], the melting point is reported as 169 to 170 °C.
`CNc1ncc(CNc2nc(-c3ccc(Cl)cc3)cs2)s1` (as salt: hydrochloride) [Compound 2aa, 4-(4-Chlorophenyl)-N-((2-(methylamino)thiazol-5-yl)methyl)thiazol-2-amine dihydrochloride] gave a melting point of 122 to 123 °C.
With `Nc1cccc(NCc2ccc(NCc3ccccc3)nc2)n1` (as salt: hydrochloride) [Compound 2y, N^2-((6-(benzylamino)pyridin-3-yl)methyl)pyridine-2,6-diamine] the melting point was 261 to 262 °C.
For `CCCNc1ncc(CNc2ncc(CNc3nc(-c4ccc(C)cc4)cs3)s2)s1` (as salt: hydrochloride) [Compound 2ad, N-Propyl-5-((5-((4-p-tolylthiazol-2-ylamino)methyl)thiazol-2-ylamino)methyl)thiazol-2-amine trihydrochloride], the melting point was > 135 °C (dec.).
In the case of `c1ccc(CNc2ncc(CNc3nc(Cc4ccccc4)cs3)s2)cc1` (as salt: hydrochloride) [Compound 2ae, 4-Benzyl-N-((2-(benzylamino)thiazol-5-yl)methyl)thiazol-2-amine dihydrochloride], the melting point is reported as 78 to 79 °C.
Molecule `CCCCNc1cccc(CNc2cc(-c3ccc(F)cc3)[nH]n2)n1` [Compound 2am, N-Butyl-6-((5-(4-fluorophenyl)-1H-pyrazol-3-ylamino)methyl)pyridin-2-amine] has a melting point of 93 to 94 °C.
For `Cc1ccc(-c2csc(NCc3cnc(NCc4ccccc4)s3)n2)cc1` (as salt: hydrochloride) [Compound 2j, N-Benzyl-5-((4-p-tolylthiazol-2-ylamino)methyl)thiazol-2-amine dihydrochloride], the melting point was 106 to 108 °C.
